# Experimental data as given in US6800637B2, “Antidepressant indolealkyl derivatives of heterocycle-fused benzodioxan methylamines” (Wyeth, priority 2002, dated 2004).
# Structures can show the parent of a compound that is named as a salt.
# Tests used:
# [1] = target: T1, serotonin transporter (Rattus norvegicus, UniProt P31652); test: Displacement of 3H-paroxetine from male rat frontal cortical membranes (serotonin transporter affinity); assay type: binding; settings: read-out: 5-HT Transporter Affinity KI
# T1 construct: displace ^3H-paroxetine from male rat frontal cortical membranes; from tissue; host or cells: male rat frontal cortex membranes
# T1 sequence (P31652 whole entry): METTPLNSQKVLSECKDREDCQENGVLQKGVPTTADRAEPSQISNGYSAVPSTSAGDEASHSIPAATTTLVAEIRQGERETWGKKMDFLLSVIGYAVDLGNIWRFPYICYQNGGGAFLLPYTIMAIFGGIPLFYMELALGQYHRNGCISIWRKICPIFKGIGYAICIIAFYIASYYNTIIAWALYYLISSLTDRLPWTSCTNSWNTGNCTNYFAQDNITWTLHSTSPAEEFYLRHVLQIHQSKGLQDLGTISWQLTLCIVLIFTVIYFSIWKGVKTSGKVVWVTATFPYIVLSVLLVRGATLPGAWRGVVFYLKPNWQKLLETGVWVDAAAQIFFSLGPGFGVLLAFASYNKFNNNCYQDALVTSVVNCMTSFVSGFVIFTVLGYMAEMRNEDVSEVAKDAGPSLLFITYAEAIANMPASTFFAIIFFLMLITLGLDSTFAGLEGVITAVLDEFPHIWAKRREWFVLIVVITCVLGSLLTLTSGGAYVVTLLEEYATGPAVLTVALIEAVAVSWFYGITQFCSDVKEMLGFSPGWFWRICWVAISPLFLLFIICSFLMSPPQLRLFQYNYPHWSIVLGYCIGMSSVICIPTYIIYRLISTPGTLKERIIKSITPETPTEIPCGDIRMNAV
# [2] = target: T2, human 5-HT1A receptors (Homo sapiens, UniProt P08908); test: Displacement of [3H] 8-OHDPAT from 5-HT1A receptor, CHO cells stably transfected with human 5-HT1A receptors; assay type: binding; settings: CHO cells with human 5-HT1A receptors, read-out: 5-HT1A Receptor Affinity KI
# T2 construct: expressed in transfected cells; host or cells: CHO cells
# T2 sequence (P08908 1-422): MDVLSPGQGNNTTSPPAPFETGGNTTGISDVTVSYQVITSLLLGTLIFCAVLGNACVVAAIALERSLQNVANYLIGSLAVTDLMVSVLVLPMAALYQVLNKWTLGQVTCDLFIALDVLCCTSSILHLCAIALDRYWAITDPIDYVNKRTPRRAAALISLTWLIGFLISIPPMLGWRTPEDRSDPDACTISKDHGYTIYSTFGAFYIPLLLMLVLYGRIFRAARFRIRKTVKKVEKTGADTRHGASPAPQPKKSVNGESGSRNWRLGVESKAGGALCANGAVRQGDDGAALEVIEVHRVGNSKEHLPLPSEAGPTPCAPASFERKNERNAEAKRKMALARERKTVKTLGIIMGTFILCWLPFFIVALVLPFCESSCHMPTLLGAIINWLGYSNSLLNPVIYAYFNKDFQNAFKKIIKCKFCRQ
# Source text: High affinity for the serotonin 5-HT1A receptor was established by testing the claimed compound's ability to displace [^3H] 8-OHDPAT (dipropylaminotetralin) from the 5-HT1A serotonin receptor following a modification of the procedure of Hall et al., J. Neurochem. 44, 1685 (1985) which utilizes CHO cells stably transfected with human 5-HT1A receptors.
# [3] = target: T3, cloned human 5HT1A receptors (Homo sapiens, UniProt P08908); test: 35S-GTPγS binding assay, membranes containing cloned human 5HT1A receptors; assay type: biochemical; settings: for IC50: antagonist potency, reversal of the effects of the standard agonist 8-OHDPAT, read-out: 5-HT1A Function IC50; for Emax: maximum inhibitory effect, read-out: 5-HT1A Function (Imax)
# T3 construct: expressed in transfected cells
# T3 sequence (P08908 1-422): T2 sequence (P08908 1-422)
# Procedure: Antagonist activity at 5-HT1A receptors was established by using a ^35S-GTPγS binding assay similar to that used by Lazareno and Birdsall (Br. J. Pharmacol. 109: 1120, 1993), in which the test compound's ability to affect the binding of ^35S-GTPγS to membranes containing cloned human 5HT1A receptors was determined. Agonists produce an increase in binding whereas antagonists produce no increase but rather reverse the effects of the standard agonist 8-OHDPAT. The test compound's maximum inhibitory effect is represented as the Imax, while its potency is defined by the IC50.
smiles,measurement,setting,value
"Cc1ccc2c3c(ccc2n1)OC[C@H](CNCCCc1c[nH]c2ccc(F)cc12)O3 (as salt: fumarate) [Example 3, N-[3-(5-Fluoro-1H-Indolyl-3-yl)propyl]-N-(8-methyl-2,3-dihydro-[1,4]dioxino[2,3-f]quinolin-2-ylmethyl)amine]",melting point,,207 to 209 °C
"Cc1ccc2c3c(ccc2n1)OCC(CNCCCc1c[nH]c2ccccc12)O3 (stereo not drawn) (as salt: fumarate) [Example 6, N-[3-(1H-Indol-3-yl)propyl]-N-(8-methyl-2,3-dihydro-[1,4]dioxino[2,3-f]quinolin-2-ylmethyl)amine]",melting point,,202 to 203 °C
"Cc1ccc2c3c(ccc2n1)OCC(CN(C)CCCc1c[nH]c2ccc(F)cc12)O3 (stereo not drawn) (as salt: fumarate) [Example 7, N-[3-(5-Fluoro-1H-indol-3-yl)propyl]-N-methyl-N-(8-methyl-2,3-dihydro-[1,4]dioxino[2,3-f]quinolin-2-ylmethyl)amine]",melting point,,104 to 120 °C
"Cc1ccc2c3c(ccc2n1)OCC(CNCCCc1c[nH]c2c(F)cccc12)O3 (stereo not drawn) (as salt: fumarate) [Example 8, N-[3-(7-Fluoro-1H-indol-3-yl)propyl]-N-(8-methyl-2,3-dihydro-[1,4]dioxino[2,3-f]quinolin-2-ylmethyl)amine]",melting point,,142 to 150 °C
"Cc1ccc2c3c(ccc2n1)OCC(CNCCCCc1c[nH]c2ccccc12)O3 (stereo not drawn) (as salt: fumarate) [Example 9, N-[4-(1H-indol-3-yl)butyl]-N-(8-methyl-2,3-dihydro-[1,4]dioxino[2,3-f]quinolin-2-ylmethyl)amine]",melting point,,208 to 210 °C
"Cc1ccc2c3c(ccc2n1)OCC(CNCCCCc1c[nH]c2ccc(F)cc12)O3 (stereo not drawn) (as salt: fumarate) [Example 10, N-[4-(5-Fluoro-1H-indol-3-yl)butyl]-N-(8-methyl-2,3-dihydro-[1,4]dioxino[2,3-f]quinolin-2-ylmethyl)amine]",melting point,,138 to 154 °C
"Cc1ccc2c3c(ccc2n1)OCC(CNCCCc1cn(C)c2ccc(F)cc12)O3 (stereo not drawn) (as salt: fumarate) [Example 12, N-[3-(5-Fluoro-1-methyl-1H-indol-3-yl)propyl]-N-(8-methyl-2,3-dihydro-[1,4]dioxino[2,3-f]quinolin-2-ylmethyl)amine]",melting point,,156 to 161 °C
"Cc1ccc2c3c(ccc2n1)OCC(CNCCCc1c[nH]c2c(F)cc(F)cc12)O3 (stereo not drawn) (as salt: fumarate) [Example 13, N-[3-(5,7-Difluoro-1H-indol-3-yl)propyl]-N-(8-methyl-2,3-dihydro-[1,4]dioxino[2,3-f]quinolin-2-ylmethyl)amine]",melting point,,188 to 195 °C
Cc1ccc2c3c(ccc2n1)OC[C@H](CNCCc1coc2ccccc12)O3 (as salt: fumarate) [Example 17],melting point,,210 to 214 °C
Cc1ccc2c3c(ccc2n1)OC[C@H](CNCCCc1coc2ccccc12)O3 (as salt: fumarate) [Example 18],melting point,,165 to 170 °C
"COc1cccc2c(CCCNCC3COc4ccc5nc(C)ccc5c4O3)coc12 (stereo not drawn) (as salt: fumarate) [Example 19, N-[3-(7-Methoxy-1-benzofuran-3-yl)propyl]-N-(8-methyl-2,3-dihydro-[1,4]dioxino[2,3-f]quinolin-2-ylmethyl)amine]",melting point,,155 to 160 °C
Cc1ccc2c3c(ccc2n1)OC[C@H](CNCCCc1csc2ccccc12)O3 (as salt: fumarate) [Example 20],melting point,,185 to 186 °C
"Cc1ccc2c3c(ccc2n1)OCC(CNCCCCc1cn(C)c2ccc(F)cc12)O3 (stereo not drawn) [Example 35, [4-(5-Fluoro-1-methyl-1H-indol-3-yl)-butyl]-(8-methyl-2,3-dihydro-[1,4]dioxino[2,3-f]quinolin-2-ylmethyl)-amine]",Ki,[1],2.4 nM
same,Ki,[2],0.56 nM
same,IC50,[3],66.6 nM
same,Emax,[3],78.9%
"CCN(CCCc1c[nH]c2ccc(F)cc12)C[C@H]1COc2ccc3nc(C)oc3c2O1 [Example 36, Ethyl-[3-(5-fluoro-1H-indol-3-yl)-propyl]-(2-methyl-7,8-dihydro-[1,4]dioxino[2,3-g][1,3]benzoxazol-8-ylmethyl)-amine]",Ki,[1],1.9 nM
same,Ki,[2],16.3 nM
same,IC50,[3],486 nM
same,Emax,[3],91.9%
"Cc1ccc2c3c(ccc2n1)OC[C@H](CNCCCc1cn(C)c2ccc(C#N)cc12)O3 [Example 37, 1-Methyl-3-{3-[(8-methyl-2,3-dihydro-[1,4]dioxino[2,3-f]quinolin-2-ylmethyl)-amino]-proyl}-1H-indole-5-carbonitrile]",Ki,[1],2.6 nM
same,Ki,[2],1.12 nM
same,IC50,[3],21.4 nM
same,Emax,[3],100%
"Cc1ccc2c3c(ccc2n1)OCC(CNCCCCn1ccc2ccc(F)cc21)O3 (stereo not drawn) [Example 38, [4-(6-Fluoro-indol-1-yl)-butyl]-(8-methyl-2,3-dihydro-[1,4]dioxino[2,3-f]quinolin-2-ylmethyl)-amine]",Ki,[1],1.31 nM
same,Ki,[2],0.06 nM
same,IC50,[3],25.8 nM
same,Emax,[3],85.5%
"Cc1ccc2c3c(ccc2n1)OC[C@H](CNCCCCc1c[nH]c2ccc(C#N)cc12)O3 [Example 39, 3-{4-[(8-Methyl-2,3-dihydro-[1,4]dioxino[2,3-f]quinolin-2-ylmthyl)-amino]-butyl}-1H-indole-5-carbonitrile]",Ki,[1],0.5 nM
same,Ki,[2],0.85 nM
same,IC50,[3],263 nM
same,Emax,[3],78.5%
"Cc1ccc2c3c(ccc2n1)OCC(CN(C)CCCc1cn(C)c2ccc(C#N)cc12)O3 (stereo not drawn) [Example 40, 1-Methyl-3-{3-[methyl-(8-methyl-2,3-dihydro-[1,4]dioxino[2,3-f]quinolin-2-ylmethyl)-amino]-propyl}-1H-indole-5-carbonitrile]",Ki,[1],7 nM
same,Ki,[2],17.7 nM
same,IC50,[3],1980 nM
same,Emax,[3],100%
"Cc1ccc2c3c(ccc2n1)OCC(CN(C)CCCCc1c[nH]c2ccc(F)cc12)O3 (stereo not drawn) [Example 43, [4-(5-Fluoro-1H-indol-3-yl)-butyl]-methyl-(8-methyl-2,3-dihydro-[1,4]dioxino[2,3-f]quinolin-2-ylmethyl}-amine]",Ki,[1],0.5 nM
same,Ki,[2],13.1 nM
same,IC50,[3],344 nM
same,Emax,[3],100%
"Cc1ccc2c3c(ccc2n1)OCC(CN(C)CCCCc1cn(C)c2ccc(F)cc12)O3 (stereo not drawn) [Example 44, [4-(5-Fluoro-1-methyl-1H-indol-3-yl)-butyl]-methyl-(8-methyl-2,3-dihydro-[1,4]dioxino[2,3-f]quinolin-2-ylmethyl)-amine]",Ki,[1],3.4 nM
same,Ki,[2],9.99 nM
same,IC50,[3],372 nM
same,Emax,[3],100%
"CCCN(CCCc1c[nH]c2ccc(F)cc12)CC1COc2ccc3nc(C)ccc3c2O1 (stereo not drawn) [Example 45, [3-(5-Fluoro-1H-indol-3-yl)-propyl]-(8-methyl-2,3-dihydro-[1,4]dioxino[2,3-f]quinolin-2-ylmethyl)-propyl-amine]",Ki,[1],1 nM
same,Ki,[2],108 nM
same,IC50,[3],1090 nM
same,Emax,[3],100%
"Cc1ccc2c3c(ccc2n1)OCC(CNCCCn1ccc2c(F)cccc21)O3 (stereo not drawn) [Example 46, [3-(4-Fluoro-indol-1-yl)-propyl]-(8-methyl-2,3-dihydro-[1,4]dioxino[2,3-f]quinolin-2-ylmethyl)-amine]",Ki,[1],6.7 nM
same,Ki,[2],0.05 nM
same,IC50,[3],31.4 nM
same,Emax,[3],85.6%
"Cc1ccc2c3c(ccc2n1)OCC(CN(C)CCCCn1ccc2ccc(F)cc21)O3 (stereo not drawn) [Example 47, [4-(6-Fluoro-indol-1-yl)-butyl]-methyl-(8-methyl-2,3-dihydro-[1,4]dioxino[2,3-f]quinolin-2-ylmethyl)-amine]",Ki,[1],1 nM
same,Ki,[2],4.42 nM
same,IC50,[3],191 nM
same,Emax,[3],75.2%
Cc1ccc2c3c(ccc2n1)OC[C@H](CN(C)CCCn1ccc2c(F)cccc21)O3 [Example 48],Ki,[1],4.2 nM
same,Ki,[2],24.7 nM
same,IC50,[3],500 nM
same,Emax,[3],100%
Cc1ccc2c3c(ccc2n1)OC[C@H](CNCCCCc1csc2ccc(Cl)cc12)O3 [Example 49],Ki,[1],23 nM
same,Ki,[2],0.73 nM
same,IC50,[3],99 nM
same,Emax,[3],33%
Cc1ccc2c3c(ccc2n1)OC[C@H](CNCCCc1csc2ccc(Cl)cc12)O3 [Example 50],Ki,[1],9.7 nM
same,Ki,[2],0.45 nM
same,IC50,[3],69 nM
same,Emax,[3],50%
"Cc1ccc2c3c(ccc2n1)OC[C@H](CNCCCc1csc2ccc(F)cc12)O3 [Example 51, N-[3-(5-Fluoro-1-benzothien-3-yl)propyl]-N-{[(2S)-8-methyl-2,3-dihydro[1,4]dioxino[2,3-f]quinolin-2-yl]methyl}amine]",Ki,[1],2.35 nM
same,Ki,[2],0.78 nM
same,IC50,[3],19 nM
same,Emax,[3],82%
